Several values for one entry are separate records, joined by “and”; a condition that tells them apart may be missing. Equal entries are not always repeated. Marks after values point to notes of the source that are not given here.
Key:
Format in all cases: in vivo
[1] = test system: submaxillary gland in SS mice; assay: Histopathological examination and grading of submaxillary gland in SS mice (H&E, Chisholm-Mason scale); conditions: two weeks of administration, four mice of each group
Method: (§1) Mice were sacrificed after two weeks of administration, and then submaxillary glands of four mice of each group were removed and pathologically observed. At first, the submaxillary gland should be fixed in 10% buffered formalin for 24 h, followed by washing, dehydration and clearing, wax-filling, embedding, sectioning and finally H&E staining. […] Results were graded pathologically.
(§2) Note: The histological findings graded of submaxillary glands according to the Chisholm-Mason scale; grade 0, absence of lymphocytic infiltration; grade I, slight lymphocytic infiltration; grade II, moderate lymphocytic infiltration; grade III, one focus of lymphocytic infiltration per 4 mm^2 tissue; grade IV, more than one focus of lymphocytic infiltration per 4 mm^2 tissue (Note: One focus of lymphocytic infiltration has been defined as an aggregate of 50 or more lymphocytes gathered in the labial gland stroma per 4 mm^2 of tissue.

[2] = test system: submaxillary glands in NOD mice; assay: Pathological grading of submaxillary glands in NOD mice; conditions: NOD mice
Method: as §1, §2

[3] = test system: Sjögren's syndrome model mice (C57BL/6 female mice); assay: Saliva amount in induced Sjögren's syndrome model mice (wet weight method after pilocarpine); conditions: for Saliva amount in SS mice, Pre-administration / Saliva amount, Pre-administration: baseline before administration; for Saliva amount, One week after: one week of administration; for Curative effect judged on saliva amount after one week of medication: high dose of CP-25, TGP, Pae, HCQ at the doses of Table 3
Method: […] Water intake, saliva amount and submaxillary gland pathological analysis and score were determined respectively, on the day before administration, the 7th day and 14th day after administration. The therapeutic effects of CP-25 on Sjögren's syndrome were evaluated by comparison of changes of each index before and after treatment. 2 Sjögren's syndrome model mice: C57BL/6 female mice housed in a SPF environment with successful modeling (The animal model was made via repeated multi-point intracutaneous injection of submaxillary gland homogenate of homologous mice to tail and back of mice). The animal model was made via repeated multi-point intracutaneously injection of submaxillary gland homogenate of homologous mice to tail and back of mice, and the mice with successful modeling were randomly assigned to each group according to comprehensive conditions of mice. At the same time, the average weight and status of each group of mice should be as close as possible. […] […] High dose of said pharmaceutical should be incubated for half an hour before use. Before measurement, mice were anesthetized via intraperitoneal injection of 0.05 ml of 2.4% pentobarbital sodium, and the satisfactory anesthesia was smooth breathing, corneal reflex disappearance and limb muscle relaxation. After complete anesthesia, a mouse was placed in slightly tilted trendelenburg position, and its body was kept warm using the heater. The mouse was injected intraperitoneally with 0.1 ml of 0.025 mg/ml Pilocarpine, and 5 min later, a weighed cotton ball was placed in the mouth of the mouse for 10 min. After taking the ball out, the saliva weight of mice was measured by the wet weight method.

NOD mice = assay: Saliva amount in NOD mice; conditions: NOD mice; for Saliva amount in NOD mice, Pre-administration: baseline before administration
Method: Before measurement, mice were anesthetized via intraperitoneal injection of 0.05 ml of 2.4% pentobarbital sodium, and the satisfactory anesthesia was smooth breathing, corneal reflex disappearance and limb muscle relaxation. After complete anesthesia, a mouse was placed in slightly tilted trendelenburg position, and its body was kept warm using the heater. The mouse was injected intraperitoneally with 0.1 ml of 0.025 mg/ml Pilocarpine, and 5 min later, a weighed cotton ball was placed in the mouth of the mouse for 10 min. After taking the ball out, the saliva weight of mice was measured by the wet weight method.
Therapeutic effects of on Sjögren's syndrome CP-25 in NOD mice.

SS mice = assay: Organic indexes (spleen, submaxillary gland, thymus) in SS mice; conditions: 70 mg/kg
From the text: 2 Sjögren's syndrome model mice: C57BL/6 female mice housed in a SPF environment with successful modeling (The animal model was made via repeated multi-point intracutaneous injection of submaxillary gland homogenate of homologous mice to tail and back of mice). The animal model was made via repeated multi-point intracutaneously injection of submaxillary gland homogenate of homologous mice to tail and back of mice, and the mice with successful modeling were randomly assigned to each group according to comprehensive conditions of mice. At the same time, the average weight and status of each group of mice should be as close as possible. Paeoniflorin-6′-O-benzenesulfonate, white crystalline powder, purity 98.5%, was dissolved in trace ethanol (75 mg of CP-25 was soluble in 40 μl of ethanol), and then sodium carboxymethylcellulose was added to formulate a suspension of CP-25. Corresponding dose gradient, low dose (17.5 mg/kg), medium dose (35 mg/kg) and high dose (70 mg/kg) of said pharmaceutical should be prepared before medication, stored in 4° C. refrigerator for use. High dose of said pharmaceutical should be incubated for half an hour before use.

NOD model mice = assay: Organic indexes (spleen, submaxillary gland, thymus) in NOD model mice; conditions: 70 mg/kg

For `CCN(CCO)CCCC(C)Nc1ccnc2cc(Cl)ccc12` (stereo not shown) [HCQ, hydroxychloroquine, reference compound], the “Score: mice with submaxillary gland pathology Grade 0” value ([1]; 80 mg/kg) was 0, the “Score: mice with submaxillary gland pathology Grade I” value ([1]; 80 mg/kg) was 0 and the “Score: mice with submaxillary gland pathology Grade II” value ([1]; 80 mg/kg) was 0. For the same molecule, the “Score: mice with submaxillary gland pathology Grade III” value ([1]; 80 mg/kg) was 3, the “Score: mice with submaxillary gland pathology Grade IV” value ([1]; 80 mg/kg) was 1^# and the “Score: mice with submaxillary gland pathology Grade 0” value ([2]; 80 mg/kg) was 0. For the same molecule, the “Score: mice with submaxillary gland pathology Grade I” value ([2]; 80 mg/kg) was 0, the “Score: mice with submaxillary gland pathology Grade II” value ([2]; 80 mg/kg) was 0 and the “Score: mice with submaxillary gland pathology Grade III” value ([2]; 80 mg/kg) was 3. The “Score: mice with submaxillary gland pathology Grade IV” value ([2]; 80 mg/kg) was 1 ^#, the “Saliva amount in SS mice, One week after administration” value ([3]; Example 1, C57BL/6 SS mice, 80 mg/kg) was 18.17 ± 3.65 mg/each mouse/10 min and the “Saliva amount in SS mice, Pre-administration” value ([3]; Example 1, C57BL/6 SS mice, dose group 80 mg/kg) was 23.17 ± 2.79 mg/each mouse/10 min. For the same molecule, the “Saliva amount, One week after” value ([3]; SS model mice, 80 mg/kg) was 18.17 ± 3.65 mg/10 min, the “Saliva amount, Pre-administration” value ([3]; SS model mice, dose group 80 mg/kg) was 23.17 ± 2.79 mg/10 min and the “Curative effect judged on saliva amount after one week of medication” value ([3]; SS model mice) was “did not show apparent effect”. The “Saliva amount in NOD mice, One week after administration” value (NOD mice; 80 mg/kg) was 17.00 ± 1.61 mg/each mouse/10 min, the “Saliva amount in NOD mice, Two weeks after administration” value (NOD mice; 80 mg/kg) was 17.00 ± 1.41 mg/each mouse/10 min and the “Saliva amount in NOD mice, Pre-administration” value (NOD mice; dose group 80 mg/kg) was 19.17 ± 3.18 mg/each mouse/10 min.
In the case of `C[C@@]12C[C@@]3(O)O[C@@H](O1)[C@]1(COC(=O)c4ccccc4)[C@H]3C[C@@]12O[C@@H]1O[C@H](CO)[C@@H](O)[C@H](O)[C@H]1O` [Pae, Paeoniflorin], the “Score: mice with submaxillary gland pathology Grade 0” value ([1]; 70 mg/kg) was 0, the “Score: mice with submaxillary gland pathology Grade I” value ([1]; 70 mg/kg) was 0 and the “Score: mice with submaxillary gland pathology Grade II” value ([1]; 70 mg/kg) was 0. The “Score: mice with submaxillary gland pathology Grade III” value ([1]; 70 mg/kg, 70 mg/kg) was 2 and 1, the “Score: mice with submaxillary gland pathology Grade 0” value ([2]; 70 mg/kg) was 0 and the “Score: mice with submaxillary gland pathology Grade I” value ([2]; 70 mg/kg) was 0. For the same molecule, the “Score: mice with submaxillary gland pathology Grade II” value ([2]; 70 mg/kg) was 0, the “Score: mice with submaxillary gland pathology Grade III” value ([2]; 70 mg/kg) was 1 and the “Score: mice with submaxillary gland pathology Grade IV” value ([2]; 70 mg/kg) was 3. The “Saliva amount in SS mice, One week after administration” value ([3]; Example 1, C57BL/6 SS mice, 70 mg/kg) was 17.01 ± 2.10 mg/each mouse/10 min, the “Saliva amount in SS mice, Two weeks after administration” value ([3]; Example 1, C57BL/6 SS mice, 70 mg/kg, two weeks) was 17.17 ± 2.72^ mg/each mouse/10 min and the “Saliva amount in SS mice, Pre-administration” value ([3]; Example 1, C57BL/6 SS mice, dose group 70 mg/kg) was 23.50 ± 2.89 mg/each mouse/10 min. The “Saliva amount, One week after” value ([3]; SS model mice, 70 mg/kg) was 17.01 ± 2.10 mg/10 min, the “Saliva amount, Two weeks after” value ([3]; SS model mice, 70 mg/kg, two weeks of administration) was 17.17 ± 2.72^ mg/10 min and the “Saliva amount, Pre-administration” value ([3]; SS model mice, dose group 70 mg/kg) was 23.50 ± 2.89 mg/10 min. The “Curative effect judged on saliva amount after one week of medication” value ([3]; SS model mice) was “did not show apparent effect”, the “Saliva amount in NOD mice, One week after administration” value (NOD mice; 70 mg/kg) was 15.40 ± 1.62 mg/each mouse/10 min and the “Saliva amount in NOD mice, Two weeks after administration” value (NOD mice; 70 mg/kg) was 14.75 ± 1.25 mg/each mouse/10 min. The “Saliva amount in NOD mice, Pre-administration” value (NOD mice; dose group 70 mg/kg) was 19.83 ± 1.94 mg/each mouse/10 min, the Spleen index (SS mice) was 9.15 ± 1.44 mg/g and the Submaxillary gland index (SS mice) was 3.71 ± 0.68 mg/g. For the same molecule, the Thymus index (SS mice) was 0.85 ± 0.23 mg/g, the Spleen index (NOD model mice) was 5.3 ± 0.5 mg/g and the Submaxillary gland index (NOD model mice) was 4.5 ± 0.5^ mg/g. For the same molecule, the Thymus index (NOD model mice) was 1.0 ± 0.1 mg/g.

Source: US20200147116A1, “Use of Paeoniflorin-6'-O-benzenesulfonate in treatment of Sjögren's syndrome” (NINGBO ZHIMING BIOTECHNOLOGY CO., LTD., priority 2017, published 2020)
